In PMC7570665 (2020) one finds KD and Kd data, which are given here for 4 molecules.

The test system of test [1] is T10-7.t5 (XNA, aptamer, all-TNA (alpha-L-threose nucleic acid, 3'-2'); 7-deaza-7-phenyl-guanine in place of every guanine) CTTTTAAGAACCGGACGAACTAGAATATTATATTTT
Put plainly: equilibrium filtration, γ-32P-ATP, Hill fit. As to conditions: 5 mM MgCl2, 300 mM NaCl; 20 mM Tris-HCl pH 7.6; 4 °C in methods, 24 °C in legend; apparent.

The test system is the same in test [2]. Put plainly: competitive equilibrium filtration. As to conditions: 5 mM MgCl2, 300 mM NaCl; 20 mM Tris-HCl pH 7.6; displaces γ-32P-ATP; 4 °C in methods, 24 °C in legend; highest concentration not stated.

For the molecule `Nc1ncnc2c1ncn2[C@@H]1O[C@H](COP(=O)(O)OP(=O)(O)OP(=O)(O)O)[C@@H](O)[C@H]1O`, the KD in test [1] amounted to 22 ± 5 µM.
What is called Kd is the concentration at which binding is half-saturated. Read a high Kd as weaker binding. Regarding `O=c1ccn([C@@H]2O[C@H](COP(=O)(O)OP(=O)(O)OP(=O)(O)O)[C@@H](O)[C@H]2O)c(=O)[nH]1`, the dissociation constant (Kd) in test [2] was over 2000 µM.
On to `Nc1nc2c(ncn2[C@@H]2O[C@H](COP(=O)(O)OP(=O)(O)OP(=O)(O)O)[C@@H](O)[C@H]2O)c(=O)[nH]1`, for which the Kd in test [2] is over 2000 µM.
For the molecule `Nc1ccn([C@@H]2O[C@H](COP(=O)(O)OP(=O)(O)OP(=O)(O)O)[C@@H](O)[C@H]2O)c(=O)n1`, the dissociation constant (Kd) in test [2] was over 2000 µM.
